In paper PMC12147714 (FEMS Microbiology Letters, 2025):
Read-outs that look alike come from different tables or passages of the source.

How the values were obtained:
[1] = system: PAO1 TnoprD producing KPC-2; assay type: cell-based, Pseudomonas aeruginosa; settings: KPC-2 TnoprD; antibiotic alone
Procedure: (§1) The fractional inhibitory concentration index (FICI) was calculated and interpreted as follows: the MIC of drug A in combination/the MIC of drug A alone + the MIC of drug B in combination/the MIC drug B alone. FICI ≤ 0.5 = synergy; 0.5 < FICI ≤ 1 = additive; FICI 1 < FICI < 2 = indifference, and FICI ≥ 2 = antagonism. All susceptibility testing/checkerboard assays were performed in triplicate.

PAO1 producing KPC-2 = assay type: cell-based, Pseudomonas aeruginosa; settings: antibiotic alone
Procedure: as §1

[2] = system: PAO1 and PAO1 TnoprD producing one of eight different carbapenemases; assay: MIC and checkerboard, isogenic strains as a group; assay type: cell-based, Pseudomonas aeruginosa
From the text: (§2) Pseudomonas aeruginosa isolate, PAO1, was used alongside its isogenic counterpart, PAO1 TnoprD, which lacks a functional OprD porin (Held et al. [2012]). β-lactamases, blaIMP-1, blaIMP-10, blaIMP-13, blaNDM-1, blaSPM-1, blaVIM-1, blaVIM-2, and blaKPC-2, had previously been cloned into the pUCP24 shuttle vector (Bouvier et al. [2025]), and were transformed by electroporation into both PAO1 and PAO1 TnoprD.
as §1, with “. MICs of DMSA, CAZ, FEP and checkerboards for the combinations, CAZ/DMSA and FEP/DMSA, were performed for all clinical isolates. All susceptibility testing results were interpreted according to CLSI guidelines (CLSI [2023]). The” for “The”

PAO1 producing VIM-2 = assay: MIC and checkerboard by broth microdilution, recombinant strain; assay type: cell-based, Pseudomonas aeruginosa; settings: antibiotic alone
From the text: as §2
as §1, with “. MICs of DMSA, CAZ, FEP and checkerboards for the combinations, CAZ/DMSA and FEP/DMSA, were performed for all clinical isolates. All susceptibility testing results were interpreted according to CLSI guidelines (CLSI [2023]). The” for “The”

[3] = system: PAO1 TnoprD producing IMP-10; assay: as above; assay type: cell-based, Pseudomonas aeruginosa; settings: IMP-10 TnoprD; antibiotic alone
From the text: as §2
as §1, with “. MICs of DMSA, CAZ, FEP and checkerboards for the combinations, CAZ/DMSA and FEP/DMSA, were performed for all clinical isolates. All susceptibility testing results were interpreted according to CLSI guidelines (CLSI [2023]). The” for “The”

PAO1 producing VIM-1 = assay: as above; assay type: cell-based, Pseudomonas aeruginosa; settings: antibiotic alone
From the text: as §2
as §1, with “. MICs of DMSA, CAZ, FEP and checkerboards for the combinations, CAZ/DMSA and FEP/DMSA, were performed for all clinical isolates. All susceptibility testing results were interpreted according to CLSI guidelines (CLSI [2023]). The” for “The”

PAO1 producing SPM-1 = assay: as above; assay type: cell-based, Pseudomonas aeruginosa; settings: antibiotic alone
From the text: as §2
as §1, with “. MICs of DMSA, CAZ, FEP and checkerboards for the combinations, CAZ/DMSA and FEP/DMSA, were performed for all clinical isolates. All susceptibility testing results were interpreted according to CLSI guidelines (CLSI [2023]). The” for “The”

PAO1 producing IMP-1 = assay: as above; assay type: cell-based, Pseudomonas aeruginosa; settings: antibiotic alone
From the text: as §2
as §1, with “. MICs of DMSA, CAZ, FEP and checkerboards for the combinations, CAZ/DMSA and FEP/DMSA, were performed for all clinical isolates. All susceptibility testing results were interpreted according to CLSI guidelines (CLSI [2023]). The” for “The”

[4] = system: PAO1 TnoprD producing IMP-13; assay: as above; assay type: cell-based, Pseudomonas aeruginosa; settings: IMP-13 TnoprD; antibiotic alone
From the text: as §2
as §1, with “. MICs of DMSA, CAZ, FEP and checkerboards for the combinations, CAZ/DMSA and FEP/DMSA, were performed for all clinical isolates. All susceptibility testing results were interpreted according to CLSI guidelines (CLSI [2023]). The” for “The”

PAO1 producing IMP-13 = assay: as above; assay type: cell-based, Pseudomonas aeruginosa; settings: antibiotic alone
From the text: as §2
as §1, with “. MICs of DMSA, CAZ, FEP and checkerboards for the combinations, CAZ/DMSA and FEP/DMSA, were performed for all clinical isolates. All susceptibility testing results were interpreted according to CLSI guidelines (CLSI [2023]). The” for “The”

[5] = system: PAO1 TnoprD producing SPM-1; assay: as above; assay type: cell-based, Pseudomonas aeruginosa; settings: SPM-1 TnoprD; antibiotic alone
From the text: as §2
as §1, with “. MICs of DMSA, CAZ, FEP and checkerboards for the combinations, CAZ/DMSA and FEP/DMSA, were performed for all clinical isolates. All susceptibility testing results were interpreted according to CLSI guidelines (CLSI [2023]). The” for “The”

[6] = system: PAO1 TnoprD producing VIM-2; assay: as above; assay type: cell-based, Pseudomonas aeruginosa; settings: VIM-2 TnoprD; antibiotic alone
From the text: as §2
as §1, with “. MICs of DMSA, CAZ, FEP and checkerboards for the combinations, CAZ/DMSA and FEP/DMSA, were performed for all clinical isolates. All susceptibility testing results were interpreted according to CLSI guidelines (CLSI [2023]). The” for “The”

PAO1 producing NDM-1 = assay: as above; assay type: cell-based, Pseudomonas aeruginosa; settings: antibiotic alone
Procedure: as §1

[7] = system: PAO1 TnoprD producing VIM-1; assay: as above; assay type: cell-based, Pseudomonas aeruginosa; settings: VIM-1 TnoprD; antibiotic alone
Procedure: as §1

[8] = system: PAO1 TnoprD producing NDM-1; assay: as above; assay type: cell-based, Pseudomonas aeruginosa; settings: NDM-1 TnoprD; antibiotic alone
Procedure: as §1

[9] = system: PAO1 TnoprD producing IMP-1; assay: as above; assay type: cell-based, Pseudomonas aeruginosa; settings: IMP-1 TnoprD; antibiotic alone
Procedure: as §1

PAO1 producing IMP-10 = assay: as above; assay type: cell-based, Pseudomonas aeruginosa; settings: antibiotic alone
Procedure: as §1

IMP-13 = IMP-13 (Pseudomonas aeruginosa, UniProt Q7WYA8); assay: IC50, inhibition of cephalothin hydrolysis by crude extract
Sequence of IMP-13 (Q7WYA8 21-246): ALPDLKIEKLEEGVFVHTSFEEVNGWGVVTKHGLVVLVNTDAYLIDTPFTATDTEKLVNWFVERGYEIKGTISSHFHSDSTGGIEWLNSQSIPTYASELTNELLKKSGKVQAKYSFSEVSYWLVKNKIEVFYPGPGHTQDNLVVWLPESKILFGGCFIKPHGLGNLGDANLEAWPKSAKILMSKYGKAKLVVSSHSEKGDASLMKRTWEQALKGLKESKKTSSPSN

IMP-producers = system: IMP-producers; set-up: method as in Hamrick et al. 2020, Le Terrier et al. 2024; settings: ref Hamrick et al. 2020, Le Terrier et al. 2024; cited from earlier work
VIM-1 = VIM-1 (Pseudomonas aeruginosa, UniProt A0A0F7KYQ8); assay: IC50, inhibition of cephalothin hydrolysis by crude extract
SPM-1 = SPM-1 (Pseudomonas aeruginosa, UniProt Q8G9Q0); assay: as above
Sequence of SPM-1 (Q8G9Q0 entry or part of it): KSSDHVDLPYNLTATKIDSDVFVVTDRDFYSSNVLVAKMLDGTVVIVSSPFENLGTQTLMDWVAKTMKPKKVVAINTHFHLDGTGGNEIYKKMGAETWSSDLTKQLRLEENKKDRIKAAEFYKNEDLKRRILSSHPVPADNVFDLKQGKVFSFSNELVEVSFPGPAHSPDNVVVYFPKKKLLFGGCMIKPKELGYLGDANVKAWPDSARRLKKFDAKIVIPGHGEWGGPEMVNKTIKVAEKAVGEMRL

IMP-1 = IMP-1 (Serratia marcescens, UniProt P52699); assay: as above
Sequence of IMP-1 (P52699 19-246 limits assumed): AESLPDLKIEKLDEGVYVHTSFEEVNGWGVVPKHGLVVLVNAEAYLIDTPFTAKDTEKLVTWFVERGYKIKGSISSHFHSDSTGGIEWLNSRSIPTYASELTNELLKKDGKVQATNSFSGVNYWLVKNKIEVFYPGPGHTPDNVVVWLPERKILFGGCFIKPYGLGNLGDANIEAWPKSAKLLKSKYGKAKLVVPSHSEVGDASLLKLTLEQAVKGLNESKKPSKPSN

IMP-10 [10] = target: T1, IMP-10 (Serratia marcescens, UniProt P52699, V49F); assay: as above
T1 sequence (P52699 19-246 V49F): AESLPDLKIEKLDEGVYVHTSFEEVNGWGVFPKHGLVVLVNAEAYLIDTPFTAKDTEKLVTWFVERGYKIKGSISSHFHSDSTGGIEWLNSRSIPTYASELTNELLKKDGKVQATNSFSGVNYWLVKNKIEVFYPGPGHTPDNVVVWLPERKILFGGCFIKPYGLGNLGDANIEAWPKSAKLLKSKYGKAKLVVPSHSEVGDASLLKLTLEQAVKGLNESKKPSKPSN

VIM-2 = VIM-2 (Escherichia coli, UniProt Q5U7L7); assay: as above
IMP-10 [11] = target: T1, IMP-10; settings: ref Le Terrier et al. 2024; cited from earlier work

Row | SMILES | MIC [1] [µg/mL] | MIC (PAO1 producing KPC-2) [µg/mL] | MIC (PAO1 producing VIM-2) [µg/mL] | MIC [3] [µg/mL] | MIC (PAO1 producing VIM-1) [µg/mL] | MIC (PAO1 producing SPM-1) [µg/mL] | MIC (PAO1 producing IMP-1) [µg/mL] | MIC [4] [µg/mL] | MIC (PAO1 producing IMP-13) [µg/mL] | MIC [5] [µg/mL] | MIC [6] [µg/mL] | MIC (PAO1 producing NDM-1) [µg/mL] | MIC [8] [µg/mL] | MIC [9] [µg/mL] | MIC (PAO1 producing IMP-10) [µg/mL] | also measured
1 | CO/N=C(\C(=O)N[C@@H]1C(=O)N2C(C(=O)[O-])=C(C[N+]3(C)CCCC3)CS[C@H]12)c1csc(N)n1 [FEP, cefepime] | 512 | 512 | 2 | 256 | 512 | 64 | 512 | 16 | 16 | 64 | 2 | 256 | 256 | 512 | 256 | interaction with DMSA as indicated by the FICIs ([2]; strains producing IMP-1, IMP-10 or IMP-13, with and without functional OprD, all three DMSA concentrations (100, 200, 300 mg/l)): synergy (FICI ≤ 0.5 = synergy); MIC [7]: 512 µg/mL
2 | C[C@@H](O)[C@H]1C(=O)N2C(C(=O)O)=C(SCCN=CN)C[C@H]12 [IPM, imipenem] | 512 | – | 4 | 64 | 64 | 2 | 16 | 8 | 1 | 16 | 32 | 32 | – | 64 | 8 | –
3 | C[C@@H](O)[C@H]1C(=O)N2C(C(=O)O)=C(S[C@@H]3CN[C@H](C(=O)N(C)C)C3)[C@H](C)[C@H]12 [MEM, meropenem] | 512 | 256 | 4 | 256 | 64 | 32 | 64 | 8 | 4 | 64 | 8 | – | 256 | – | – | interaction with DMSA as indicated by the FICIs ([2]; SPM-1 strains, DMSA 200 and 300 mg/l): synergy (FICI ≤ 0.5 = synergy); interaction with DMSA as indicated by the FICIs ([2]; strains producing IMP-1, IMP-10 or IMP-13, with and without functional OprD, DMSA 200 and 300 mg/l): synergy (FICI ≤ 0.5 = synergy)
4 | NCCN[C@H]1CC[C@H](CC(=O)N[C@H]2Cc3cccc(C(=O)O)c3OB2O)CC1 [TAN, taniborbactam] | – | – | – | – | – | – | – | – | – | – | – | – | – | – | – | IC50 (IMP-13; IMP-13, 100 μM cephalothin, pH 7.0): > 1000 µM; activity against IMP-producers (IMP-producers): poor activity; IC50 (VIM-1; VIM-1, 100 μM cephalothin, pH 7.0): 0.8 µM; IC50 (SPM-1; SPM-1, 100 μM cephalothin, pH 7.0): 2.7 µM; IC50 (IMP-1; IMP-1, 100 μM cephalothin, pH 7.0): > 1000 µM; IC50 (IMP-10 [10]; IMP-10, 100 μM cephalothin, pH 7.0): > 1000 µM; IC50 (VIM-2; VIM-2, 100 μM cephalothin, pH 7.0): 0.5 µM
5 | O=C(O)c1c(F)ccc2c1OB(O)[C@@H]1C[C@H]21 [XER, xeruborbactam] | – | – | – | – | – | – | – | – | – | – | – | – | – | – | – | IC50 (IMP-13): 3.6 µM; activity against IMP-10 (IMP-10 [11]): limited activity; IC50 (VIM-1): 0.5 µM; IC50 (SPM-1): > 1000 µM; IC50 (IMP-1): 2.7 µM; IC50 (IMP-10 [10]): 73 µM; IC50 (VIM-2): 0.1 µM
